# Reference: patent publication US20240069010A1, “TISSUE ORGANOID BIOPRINTING AND HIGH-THROUGHPUT SCREENING METHODOLOGY” (priority 2020, published 2024)
# Tests used:
# BT-474 organoids = assay: HSLCI mass tracking of bioprinted organoids in drug screening; format: cell-based; details: for Organoid Behavior (%) Gained Mass: mass increase >10%; for Organoid Behavior (%) Lost Mass: mass loss >10%; for Organoid Behavior (%) Stable: mass change <10%
# From the text: (§1) Cells were bioprinted using a CELLINK BioX with a Temperature-Controlled Printhead. Gcode files were written to print the desired single-layer geometry. We wrote standardized blocks of Gcode encode the print path for the repeated geometries. MATLAB (MathWorks, Inc.) was used to integrate these standardized blocks into full Gcode files with the defined coordinates for each well. We used 8-well plates when printing the larger constructs as the depth of the well in a standard 24-well plate prohibited the use of 0.5″ length needles. Large rings were necessary to deposit a sufficient number of cells for RNA-Seq and IHC. Four rings with a diameter of 14.5 mm were printed for RNA sequencing (approximately 200,000 cells total), while four sets of concentric 14.5 mm, 12.5 mm, and 10.5 mm diameter rings were used for IHC analysis (approximately 500,000 cells total). We printed mini-squares with side length 3.9 mm for drug screening and HSLCI imaging. The mini-squares were inscribed within the circular well with sides parallel to the sides of the well plate. The open center of the constructs facilitates automatic manipulation with fluid handling equipment while the sides of the square are positioned to maximize the number of organoids imaged by HSLCI. The bioprinting process utilized the same material deposited for manually seeded organoids. A single cell suspension, aggregates or clusters in a 3:4 mixture of MammoCult™ and Matrigel® was prepared on ice. After vortexing briefly to homogenize, the mixture was transferred into a 3 mL syringe by removing the plunger and capping the opposite end. Once the plunger was replaced, the syringe was inverted, and bubbles were forced out of the tip. The material was then transferred to a room temperature 3 mL bioprinter cartridge (CELLINK) by connecting the syringe and cartridge with a double-sided female Luer lock adapter (CELLINK). Any air bubbles in the syringe were removed and the loaded cartridge was incubated in a rotating incubator (Enviro-Genie, Scientific Industries) for 30 minutes at the print temperature.
# (§2) During the incubation period, the printer was sterilized with the built-in UV irradiation function and the printhead was set to the print temperature. […] The well masks were autoclaved prior to use. The masks were inserted into the well plate and pressed in contact with the glass surface. Rubber bands were used to hold the masks in place and ensure conformal contact was maintained throughout the plasma treatment. The well plates were treated with oxygen plasma in a PE-25 (Plasma Etch) for 30-90 seconds, 15 minutes prior to bioprinting. After plasma treatment, the well plate was placed in the bioprinter and Automatic Bed Levelling (ABL) was performed.
# (§3) Once the incubation period ended, we attached a 0.5″ 25-gauge needle and loaded the cartridge into the pre-cooled printhead. We primed the needle by extruding a small volume of material at 15 kPa prior to calibrating the printer. Just before printing, we cleared the needle of the gelled material by extruding a small volume using 40 kPa prior to starting the print. To create constructs of the appropriate thicknesses, prints in 8-well plates were extruded at 15 kPa while prints in 96-well plates were extruded at 12-15 kPa. […] After printing, the constructs were incubated at 37° C. for at least 30 minutes to solidify the matrix and 100 μL of MammoCult™ medium was then added.
# (§4) The HSLCI platform was installed inside a standard cell culture incubator. For all growth kinetics studies and drug screening, organoids were imaged in 96-well glass-bottom plates (Cellvis P96-1.5H-N) using a 40× objective (Nikon, NA 0.75). Organoids were seeded as single-cell suspensions in a 3:4 mixture of MammoCult™ and Matrigel® as described above and were grown at 37° C. and 5% CO2 in MammoCult™ medium supplemented with 1% antibiotic-antimycotic (Gibco 15240-062).
# MCF-7 organoids = assay: as above; format: cell-based; details: for Mean mass of MCF-7 organoids, Mean mass ± SD: 48 hours of treatment; for Organoid Behavior (%) Stable / Organoid Behavior (%) Gained Mass / Organoid Behavior (%) Lost Mass: MCF-7 organoids; for Organoid Behavior (%) Stable: mass change <10%; for Organoid Behavior (%) Gained Mass: mass increase >10%; for Organoid Behavior (%) Lost Mass: mass loss >10%
# From the text: as §1, §2, §3, §4
smiles,measurement,setting,value
"CN[C@@H]1C[C@H]2O[C@@](C)([C@@H]1OC)n1c3ccccc3c3c4c(c5c6ccccc6n2c5c31)C(=O)NC4 [Staurosporine, staurosporine]","Mean mass of BT-474 organoids, Mean mass ± SD","BT-474 organoids; 1 μM, 6 hours of treatment",1.38 ± 0.49 ng
same,"Mean mass of BT-474 organoids, Mean mass ± SD","BT-474 organoids; 1 μM, 48 hours of treatment",0.70 ± 0.26 ng
same,"Mean mass of BT-474 organoids, Mean mass ± SD","BT-474 organoids; 1 μM, 48 hours of treatment, listed as staurosporine",0.70 ± 0.26 ng
same,"Mean mass of BT-474 organoids, Mean mass ± SD","BT-474 organoids; 10 μM, 6 hours of treatment",1.46 ± 0.72 ng
same,"Mean mass of BT-474 organoids, Mean mass ± SD","BT-474 organoids; 10 μM, 48 hours of treatment",0.83 ± 0.72 ng
same,"Mean mass of BT-474 organoids, Mean mass ± SD","BT-474 organoids; 10 μM, 48 hours of treatment, listed as staurosporine",0.83 ± 0.72 ng
same,Organoid Behavior (%) Gained Mass,"BT-474 organoids; BT-474 organoids, 0.1 μM, 12 h",27.6%
same,Organoid Behavior (%) Lost Mass,"BT-474 organoids; BT-474 organoids, 0.1 μM, 12 h",1.7%
same,Organoid Behavior (%) Stable,"BT-474 organoids; BT-474 organoids, 0.1 μM, 24 h",50.0%
same,Organoid Behavior (%) Gained Mass,"BT-474 organoids; BT-474 organoids, 0.1 μM, 24 h",45.8%
same,Organoid Behavior (%) Lost Mass,"BT-474 organoids; BT-474 organoids, 0.1 μM, 24 h",4.2%
same,Organoid Behavior (%) Stable,"BT-474 organoids; BT-474 organoids, 0.1 μM, 48 h",23.4%
same,Organoid Behavior (%) Gained Mass,"BT-474 organoids; BT-474 organoids, 0.1 μM, 48 h",70.1%
same,Organoid Behavior (%) Lost Mass,"BT-474 organoids; BT-474 organoids, 0.1 μM, 48 h",6.5%
same,Organoid Behavior (%) Stable,"BT-474 organoids; BT-474 organoids, 1 μM, 12 h",47.6%
same,Organoid Behavior (%) Gained Mass,"BT-474 organoids; BT-474 organoids, 1 μM, 12 h",19.0%
same,Organoid Behavior (%) Gained Mass,"BT-474 organoids; BT-474 organoids, 1 μM, 12 h, listed as staurosporine",19%
same,Organoid Behavior (%) Stable,"BT-474 organoids; BT-474 organoids, 1 μM, 24 h",29.5%
same,Organoid Behavior (%) Gained Mass,"BT-474 organoids; BT-474 organoids, 1 μM, 24 h",13.6%
same,Organoid Behavior (%) Lost Mass,"BT-474 organoids; BT-474 organoids, 1 μM, 24 h",56.8%
same,Organoid Behavior (%) Stable,"BT-474 organoids; BT-474 organoids, 1 μM, 48 h",12.0%
same,Organoid Behavior (%) Gained Mass,"BT-474 organoids; BT-474 organoids, 1 μM, 48 h",4.0%
same,Organoid Behavior (%) Lost Mass,"BT-474 organoids; BT-474 organoids, 1 μM, 48 h",84.0%
same,reduction in the number of organoids that increased in size,"BT-474 organoids; BT-474 organoids, 1 μM, after 12 hours, compared to the control",60%
same,Organoid Behavior (%) Stable,"BT-474 organoids; BT-474 organoids, 10 μM, 12 h",64.3%
same,Organoid Behavior (%) Gained Mass,"BT-474 organoids; BT-474 organoids, 10 μM, 12 h",7.1%
same,Organoid Behavior (%) Lost Mass,"BT-474 organoids; BT-474 organoids, 10 μM, 12 h",28.6%
same,Organoid Behavior (%) Stable,"BT-474 organoids; BT-474 organoids, 10 μM, 24 h",23.9%
same,Organoid Behavior (%) Gained Mass,"BT-474 organoids; BT-474 organoids, 10 μM, 24 h",19.6%
same,Organoid Behavior (%) Lost Mass,"BT-474 organoids; BT-474 organoids, 10 μM, 24 h",56.5%
same,Organoid Behavior (%) Gained Mass,"BT-474 organoids; BT-474 organoids, 10 μM, 48 h",14.8%
same,Organoid Behavior (%) Lost Mass,"BT-474 organoids; BT-474 organoids, 10 μM, 48 h",66.7%
same,"Mean mass of MCF-7 organoids, Mean mass ± SD",MCF-7 organoids; 1 μM,1.33 ± 1.07 ng
same,"Mean mass of MCF-7 organoids, Mean mass ± SD","MCF-7 organoids; 1 μM, listed as staurosporine",1.33 ± 1.08 ng
same,"Mean mass of MCF-7 organoids, Mean mass ± SD",MCF-7 organoids; 10 μM,1.26 ± 0.78 ng
same,"Mean mass of MCF-7 organoids, Mean mass ± SD","MCF-7 organoids; 10 μM, listed as staurosporine",1.26 ± 0.80 ng
same,Organoid Behavior (%) Stable,"MCF-7 organoids; 0.1 μM, 12 h",76.5%
same,Organoid Behavior (%) Gained Mass,"MCF-7 organoids; 0.1 μM, 12 h",8.8%
same,Organoid Behavior (%) Lost Mass,"MCF-7 organoids; 0.1 μM, 12 h",14.7%
same,Organoid Behavior (%) Stable,"MCF-7 organoids; 0.1 μM, 24 h",60.5%
same,Organoid Behavior (%) Lost Mass,"MCF-7 organoids; 0.1 μM, 24 h",23.3%
same,Organoid Behavior (%) Stable,"MCF-7 organoids; 0.1 μM, 48 h",38.2%
same,Organoid Behavior (%) Gained Mass,"MCF-7 organoids; 0.1 μM, 48 h",29.4%
same,Organoid Behavior (%) Lost Mass,"MCF-7 organoids; 0.1 μM, 48 h",32.4%
same,Organoid Behavior (%) Stable,"MCF-7 organoids; 1 μM, 12 h",82.1%
same,Organoid Behavior (%) Gained Mass,"MCF-7 organoids; 1 μM, 12 h",7.1%
same,Organoid Behavior (%) Lost Mass,"MCF-7 organoids; 1 μM, 12 h",10.7%
same,Organoid Behavior (%) Stable,"MCF-7 organoids; 1 μM, 24 h",71.4%
same,Organoid Behavior (%) Gained Mass,"MCF-7 organoids; 1 μM, 24 h",3.6%
same,Organoid Behavior (%) Lost Mass,"MCF-7 organoids; 1 μM, 24 h",25.0%
same,Organoid Behavior (%) Stable,"MCF-7 organoids; 1 μM, 48 h",73.3%
same,Organoid Behavior (%) Lost Mass,"MCF-7 organoids; 1 μM, 48 h",26.7%
same,Organoid Behavior (%) Stable,"MCF-7 organoids; 10 μM, 12 h",79.6%
same,Organoid Behavior (%) Gained Mass,"MCF-7 organoids; 10 μM, 12 h",2.0%
same,Organoid Behavior (%) Lost Mass,"MCF-7 organoids; 10 μM, 12 h",18.4%
same,Organoid Behavior (%) Stable,"MCF-7 organoids; 10 μM, 24 h",51.4%
same,Organoid Behavior (%) Gained Mass,"MCF-7 organoids; 10 μM, 24 h",0.0%
same,Organoid Behavior (%) Lost Mass,"MCF-7 organoids; 10 μM, 24 h",48.6%
same,Organoid Behavior (%) Stable,"MCF-7 organoids; 10 μM, 48 h",32.1%
same,Organoid Behavior (%) Gained Mass,"MCF-7 organoids; 10 μM, 48 h",3.6%
same,Organoid Behavior (%) Lost Mass,"MCF-7 organoids; 10 μM, 48 h",64.3%
